Assay results reported in patent US20250129021A1, “SMALL MOLECULE PROTEIN SYNTHESIS MODULATORS” (Interdict Bio, Inc., priority 2023, published 2025).

How the values were obtained:
Type in all cases: biochemical
Conditions in all cases: HeLa S3 lysate, sfGFP/mCherry ratio, 2 hrs at 30° C.
CCND1 = test: In vitro transcription-translation (IVTT) assay, CCND1 reporter
In short: (§1)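 Reporter: mCherry, P2A, then 3×FLAG-target peptide-sfGFP fusion, IRES-initiated; HeLa S3 lysate IVTT; cpd dilutions 30 μM−0.1 μM half-log in 100% DMSO (dilution-plate conc); DNA added last; 2 h, 30° C; PBS quench.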

ALK = test: In vitro transcription-translation (IVTT) assay, ALK reporter
In short: as §1

MYC = test: In vitro transcription-translation (IVTT) assay, MYC reporter
In short: as §1

KRAS G12D = test: In vitro transcription-translation (IVTT) assay, KRAS G12D reporter
In short: as §1

SMILES	IC50 (CCND1)	IC50 (ALK)	IC50 (MYC)	IC50 (KRAS G12D)
COc1ccc(C[C@H]2NC[C@H](O)[C@H]2OC(=O)NCCc2ncc[nH]2)cc1 [V187816, (2R,3S,4S)-4-hydroxy-2-[(4-methoxyphenyl)methyl]pyrrolidin-3-yl N-[2-(1H-imidazol-2-yl)ethyl]carbamate]	> 30 µM	< 10 µM	20 to 30 µM	> 30 µM
COc1ccc(C[C@H]2NC[C@H](O)[C@H]2OC(=O)NCc2ncc[nH]2)cc1 [V187815, (2R,3S,4S)-4-hydroxy-2-[(4-methoxyphenyl)methyl]pyrrolidin-3-yl N-(1H-imidazol-2-ylmethyl)carbamate]	10 to 20 µM	< 10 µM	< 10 µM	20 to 30 µM
COc1ccc(C[C@H]2NC[C@H](O)[C@H]2OC(=O)NCCc2nc3ccccc3[nH]2)cc1 [V187820, (2R,3S,4S)-4-hydroxy-2-[(4-methoxyphenyl)methyl]pyrrolidin-3-yl N-[2-(1H-1,3-benzodiazol-2-yl)ethyl]carbamate]	20 to 30 µM	< 10 µM	10 to 20 µM	> 30 µM
COc1ccc(C[C@H]2NC[C@H](O)[C@H]2OC(=O)NCCc2nc3ccc(Cl)cc3[nH]2)cc1 [V187821, (2R,3S,4S)-4-hydroxy-2-[(4-methoxyphenyl)methyl]pyrrolidin-3-yl N-[2-(5-chloro-3H-1,3-benzodiazol-2-yl)ethyl]carbamate]	> 30 µM	< 10 µM	10 to 20 µM	> 30 µM
COc1ccc(C[C@H]2NC[C@H](O)[C@H]2OC(=O)NCC2CCSCC2)cc1 [V187516, (2R,3S,4S)-4-hydroxy-2-[(4-methoxyphenyl)methyl]pyrrolidin-3-yl N-(thian-4-ylmethyl) carbamate]		< 10 µM	< 10 µM	10 to 20 µM
CCCCN(CCCC)CCNC(=O)O[C@@H]1[C@@H](O)CN[C@@H]1Cc1ccc(OC)cc1 [V187382, (2R,3S,4S)-4-hydroxy-2-[(4-methoxyphenyl)methyl]pyrrolidin-3-yl N-[2-(dibutylamino)ethyl]carbamate]		> 30 µM	> 30 µM	> 30 µM
COc1ccc(C[C@H]2NC[C@H](O)[C@H]2OC(=O)NCCc2cnn(Cc3ccccc3)c2)cc1 [V187439, (2R,3S,4S)-4-hydroxy-2-(4-methoxybenzyl)pyrrolidin-3-yl (2-(1-benzyl-1H-pyrazol-4-yl)ethyl) carbamate]		< 10 µM	< 10 µM	20 to 30 µM
COc1ccc(C[C@H]2NC[C@H](O)[C@H]2OC(=O)Nc2nsc(C)n2)cc1 [V187652, (2R,3S,4S)-4-hydroxy-2-[(4-methoxyphenyl)methyl]pyrrolidin-3-yl N-(5-methyl-1,2,4-thiadiazol-3-yl)carbamate; trifluoroacetic acid]		> 30 µM	> 30 µM	> 30 µM
CCN(CC)CCOCCNC(=O)O[C@@H]1[C@@H](O)CN[C@@H]1Cc1ccc(OC)cc1 [V187625, (2R,3S,4S)-4-hydroxy-2-[(4-methoxyphenyl)methyl]pyrrolidin-3-yl N-{2-[2-(diethylamino)ethoxy]ethyl}carbamate; trifluoroacetic acid]		> 30 µM	> 30 µM	> 30 µM
COc1ccc(C[C@H]2NC[C@H](O)[C@H]2OC(=O)NCCc2ncc(C)[nH]2)cc1 [V187818, (2R,3S,4S)-4-hydroxy-2-[(4-methoxyphenyl)methyl]pyrrolidin-3-yl N-[2-(4-methyl-3H-imidazol-2-yl)ethyl]carbamate]	> 30 µM	< 10 µM	20 to 30 µM	> 30 µM
COc1ccc(C[C@H]2NC[C@H](O)[C@H]2OC(=O)NC2CNC2)cc1 [V187679, (2R,3S,4S)-4-hydroxy-2-(4-methoxybenzyl)pyrrolidin-3-yl azetidin-3-ylcarbamate]		10 to 20 µM	> 30 µM	> 30 µM
COc1ccc(C[C@H]2NC[C@H](O)[C@H]2OC(=O)NCC[C@H]2CN(CC3CCCO3)CCN2Cc2ccccc2)cc1 (stereo partly drawn) [V187345, (2R,3S,4S)-4-hydroxy-2-[(4-methoxyphenyl)methyl]pyrrolidin-3-yl N-{2-[(2S)-1-benzyl-4-(oxolan-2-ylmethyl)piperazin-2-yl]ethyl}carbamate]		> 30 µM	> 30 µM	> 30 µM
COc1ccc(C[C@H]2NC[C@H](O)[C@H]2OC(=O)N[C@@H]2CCNC2)cc1 [V187688, (2R,3S,4S)-4-hydroxy-2-(4-methoxybenzyl)pyrrolidin-3-yl ((R)-pyrrolidin-3-yl)carbamate]		> 30 µM	> 30 µM	> 30 µM
CCCCN(CCCC)CCCNC(=O)O[C@@H]1[C@@H](O)CN[C@@H]1Cc1ccc(OC)cc1 [V187386, (2R,3S,4S)-4-hydroxy-2-[(4-methoxyphenyl)methyl]pyrrolidin-3-yl N-[3-(dibutylamino)propyl]carbamate]		> 30 µM	> 30 µM	> 30 µM
COc1ccc(C[C@H]2NC[C@H](O)[C@H]2OC(=O)NCCN2CCCC2)cc1 [V187565, (2R,3S,4S)-4-hydroxy-2-[(4-methoxyphenyl)methyl]pyrrolidin-3-yl N-[2-(pyrrolidin-1-yl)ethyl]carbamate; trifluoroacetic acid]		< 10 µM	> 30 µM	> 30 µM
COc1ccc(C[C@H]2NC[C@H](O)[C@H]2OC(=O)NCCOCCn2ccnc2)cc1 [V187628, (2R,3S,4S)-4-hydroxy-2-[(4-methoxyphenyl)methyl]pyrrolidin-3-yl N-{2-[2-(imidazol-1-yl)ethoxy]ethyl}carbamate; trifluoroacetic acid]		< 10 µM	< 10 µM	10 to 20 µM
COc1ccc(C[C@H]2NC[C@H](O)[C@H]2OC(=O)NCCN(C(C)C)C(C)C)cc1 [V187436, (2R,3S,4S)-4-hydroxy-2-[(4-methoxyphenyl)methyl]pyrrolidin-3-yl N-[2-(diisopropylamino)ethyl]carbamate]		> 30 µM	> 30 µM	> 30 µM
CCN(CC)Cc1nnc(NC(=O)O[C@@H]2[C@@H](O)CN[C@@H]2Cc2ccc(OC)cc2)s1 [V187552, (2R,3S,4S)-4-hydroxy-2-[(4-methoxyphenyl)methyl]pyrrolidin-3-yl N-{5-[(diethylamino)methyl]-1,3,4-thiadiazol-2-yl}carbamate; trifluoroacetic acid]		> 30 µM	> 30 µM	> 30 µM
COc1ccc(C[C@H]2NC[C@H](O)[C@H]2OC(=O)NCCN2CC(O)C(F)(F)C2)cc1 (stereo partly shown) [V187620]		< 10 µM	10 to 20 µM	20 to 30 µM
COc1ccc(C[C@H]2NC[C@H](O)[C@H]2OC(=O)NCCCCCN(C)C)cc1 [V187638, (2R,3S,4S)-4-hydroxy-2-[(4-methoxyphenyl)methyl]pyrrolidin-3-yl N-[5-(dimethylamino)pentyl]carbamate]		< 10 µM	10 to 20 µM	10 to 20 µM
COCCN(CCNC(=O)O[C@@H]1[C@H](O)CN[C@H]1Cc1ccc(OC)cc1)CCc1ccccc1 [V187508, (2S,3S,4R)-4-hydroxy-2-[(4-methoxyphenyl)methyl]pyrrolidin-3-yl N-{2-[(2-methoxyethyl)(2-phenylethyl)amino]ethyl}carbamate]		10 to 20 µM	> 30 µM	> 30 µM
COc1ccc(C[C@H]2NC[C@H](O)[C@H]2OC(=O)NCC[C@H]2CN(CC3CC3)CCN2Cc2ccccc2)cc1 [V187344]		> 30 µM	> 30 µM	> 30 µM
COc1ccc(C[C@H]2NC[C@H](O)[C@H]2OC(=O)NCCCOCC(C)C)cc1 [V187437, (2R,3S,4S)-4-hydroxy-2-[(4-methoxyphenyl)methyl]pyrrolidin-3-yl N-[3-(2-methylpropoxy)propyl]carbamate]		< 10 µM	10 to 20 µM	20 to 30 µM
COc1ccc(C[C@H]2NC[C@H](O)[C@H]2OC(=O)NC[C@@H]2CCCN2)cc1 [V187684, (2R,3S,4S)-4-hydroxy-2-[(4-methoxyphenyl)methyl]pyrrolidin-3-yl N-[(2S)-pyrrolidin-2-ylmethyl]carbamate; trifluoroacetic acid]		> 30 µM	20 to 30 µM	> 30 µM
COc1ccc(C[C@@H]2NC[C@@H](O)[C@H]2OC(=O)NCCN(CCC(N)=O)Cc2c[nH]cn2)cc1 [V187539, (2S,3S,4R)-4-hydroxy-2-[(4-methoxyphenyl)methyl]pyrrolidin-3-yl N-{2-[(2-carbamoylethyl)(1H-imidazol-4-ylmethyl)amino]ethyl}carbamate; trifluoroacetic acid]		< 10 µM	< 10 µM	20 to 30 µM
C#CCNC(=O)O[C@@H]1[C@@H](O)CN[C@@H]1Cc1ccc(OC)cc1 [V0074, (2R,3S,4S)-4-hydroxy-2-[(4-methoxyphenyl)methyl]pyrrolidin-3-yl N-(prop-2-yn-1-yl)carbamate]	< 10 µM	< 10 µM	< 10 µM	< 10 µM
COc1ccc(C[C@H]2NC[C@H](O)[C@H]2OC(=O)NCCN2C[C@@H](NC(=O)C3CC(F)(F)C3)[C@H](NC(=O)C3CC(F)(F)C3)C2)cc1 [V187554]		> 30 µM	> 30 µM	> 30 µM
COC1CCC(CC2NCC(O)C2OC(O)NCCOCC2CNNN2)CC1 (stereo not shown) [V187723, 4-[hydroxy({[2-(1,2,3-triazolidin-4-ylmethoxy)ethyl]amino})methoxy]-5-[(4-methoxycyclohexyl)methyl]pyrrolidin-3-ol; trifluoroacetic acid]	20 to 30 µM	< 10 µM	10 to 20 µM	> 30 µM
COc1ccc(C[C@H]2NC[C@H](O)[C@H]2OC(=O)NCC[C@H]2CN(Cc3ccccc3)CCN2Cc2ccccc2)cc1 [V187315]		> 30 µM	> 30 µM	> 30 µM
